Laboratory results: US9073858B2, “Methods of targeted drug development” (priority 2010, dated 2015)
Read-outs that look alike come from different tables or passages of the source.

Tests used:
[1] = Stability on incubation with human liver microsomes (HLM); format: in vitro ADME; conditions: percentage left after incubation with human liver microsomes for 30 minutes
Procedure: (§1) Stability of hydroxyquinoline analogs were determined (see e.g., TABLE 18). MLM represents the percentage left after incubation with mouse liver microsomes for 30 minutes. HLM represents the percentage left after incubation with human liver microsomes for 30 minutes.
(§2) Stability of analogs having a benzaldehyde derived ring were determined (see e.g., TABLE 18). MLM represents the percentage left after incubation with mouse liver microsomes for 30 minutes. HLM represents the percentage left after incubation with human liver microsomes for 30 minutes.

[2] = Stability on incubation with mouse liver microsomes (MLM); format: in vitro ADME; conditions: percentage left after incubation with mouse liver microsomes for 30 minutes
Procedure: as §1, §2

MDBK line = experiment: MTT Cell Proliferation Assay, MDBK line; format: cell-based, bovine; conditions: Bos taurus, MDBK
Summary of the method: (§3)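 Cells plated overnight, then exposed 3 days at 37 °C, 5% CO2 to compound in growth medium with 0.5% FBS and 0.5% DMSO final (0.5% DMSO as control).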

EGFR = target: T1, EGFR (Homo sapiens, UniProt P00533); experiment: EGFR in-cell Western (ICW) screening protocol; format: cell-based; design: unit not given here; conditions: for ICW Screen: initial screen
T1 construct: endogenous in cells; host or cells: A431 cells (ATCC CRL-1555)
T1 sequence (P00533 25-1210): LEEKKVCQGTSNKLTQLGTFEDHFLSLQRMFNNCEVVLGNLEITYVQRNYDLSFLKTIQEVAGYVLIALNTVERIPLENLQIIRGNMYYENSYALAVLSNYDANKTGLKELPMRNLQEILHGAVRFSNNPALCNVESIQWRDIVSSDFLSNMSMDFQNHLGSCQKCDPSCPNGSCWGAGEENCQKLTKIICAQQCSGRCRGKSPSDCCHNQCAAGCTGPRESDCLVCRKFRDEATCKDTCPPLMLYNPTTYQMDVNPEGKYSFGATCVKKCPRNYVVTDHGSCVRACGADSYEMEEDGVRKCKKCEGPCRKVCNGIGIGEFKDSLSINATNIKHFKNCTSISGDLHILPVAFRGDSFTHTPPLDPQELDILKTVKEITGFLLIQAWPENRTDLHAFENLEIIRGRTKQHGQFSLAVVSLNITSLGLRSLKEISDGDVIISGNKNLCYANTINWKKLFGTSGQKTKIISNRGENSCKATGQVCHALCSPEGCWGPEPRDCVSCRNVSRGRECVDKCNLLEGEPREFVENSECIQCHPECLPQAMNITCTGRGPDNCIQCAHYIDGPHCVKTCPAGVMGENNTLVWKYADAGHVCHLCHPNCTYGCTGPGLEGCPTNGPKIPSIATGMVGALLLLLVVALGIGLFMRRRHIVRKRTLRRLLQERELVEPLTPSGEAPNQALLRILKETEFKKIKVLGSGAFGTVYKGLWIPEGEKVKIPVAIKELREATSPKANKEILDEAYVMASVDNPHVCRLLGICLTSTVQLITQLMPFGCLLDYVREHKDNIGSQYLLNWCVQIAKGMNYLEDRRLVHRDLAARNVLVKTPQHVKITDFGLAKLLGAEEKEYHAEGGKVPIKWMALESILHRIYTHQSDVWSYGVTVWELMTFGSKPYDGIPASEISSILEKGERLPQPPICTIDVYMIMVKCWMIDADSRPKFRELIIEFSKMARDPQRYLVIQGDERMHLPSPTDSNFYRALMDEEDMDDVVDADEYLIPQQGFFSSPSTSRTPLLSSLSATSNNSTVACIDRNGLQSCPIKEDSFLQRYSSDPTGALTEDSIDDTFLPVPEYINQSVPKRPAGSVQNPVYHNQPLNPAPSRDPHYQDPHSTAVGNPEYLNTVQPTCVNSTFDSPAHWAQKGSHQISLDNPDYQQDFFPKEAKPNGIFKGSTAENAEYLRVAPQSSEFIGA
Summary of the method: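 Serum-starved cells treated with compound 4 h at 37 °C, then stimulated with EGF (20 or 0 ng/ml solution added) in its continued presence. In-cell Western on fixed cells: phospho-EGFR (800 channel) normalised to total EGFR (700 channel), % inhibition calculated against EGF-stimulated and unstimulated no-compound wells.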

[3] = system: epithelial carcinoma A431 cell line; experiment: MTT Cell Proliferation Assay, A431 cell line; format: cell-based; conditions: for MTT-72 h A431/MDBK (ratio): numerically MDBK value over A431 value
Summary of the method: as §3

[4] = 72 h, second value of A431/MDBK pair, read-out: MTT-72 h MDBK
[5] = Homo sapiens, A-431, 72 h, 72 h, first value of A431/MDBK pair, read-out: MTT-72 h A431

Compound	HLM % Remaining@ 30 Min [1] [%]	MLM % Remaining@ 30 Min [2] [%]	IC50 (MDBK line; [4]) [µM]	ICW Screen (EGFR)	MTT-72 h A431/MDBK (ratio) ([3]; 72 h, value in brackets)	ICW Re-Test (EGFR)	IC50 [3, 5] [µM]	other results
Cc1cccc(NC(c2ccc(OC(F)(F)F)cc2)c2ccc3cccnc3c2O)n1 (stereo not shown) [AD4-12902]	72	17	–	–	–	–	–	–
Cc1cccc(NC(c2cccc(C(F)(F)F)c2)c2ccc3cccnc3c2O)n1 (stereo not shown) [AD4-12903]	46	18	–	–	–	–	–	–
Cc1cccc(NC(c2cccc(Cl)c2Cl)c2ccc3cccnc3c2O)n1 (stereo not shown) [AD4-12905]	63	23	–	–	–	–	–	–
Cc1ccnc(NC(c2ccccc2Cl)c2ccc3cccnc3c2O)c1 (stereo not shown) [AD4-12907]	14	5	–	–	–	–	–	–
Oc1c(C(Nc2cccnc2)c2cccc(Cl)c2Cl)ccc2cccnc12 (stereo not shown) [AD4-12908]	48	6	–	–	–	–	–	–
COc1ccc(C(Nc2cccc(C)n2)c2ccc3cccnc3c2O)cc1O (stereo not shown) [AD4-12909]	50	13	–	–	–	–	–	–
Cc1cccc(NC(c2ccc(Cl)cc2Cl)c2ccc3cccnc3c2O)n1 (stereo not shown) [AD4-12911]	57	17	–	–	–	–	–	–
Cc1ccnc(NC(c2ccc(Cl)cc2Cl)c2ccc3cccnc3c2O)c1 (stereo not shown) [AD4-12912]	38	10	–	–	–	–	–	–
Cc1cccc(NC(c2cc(Cl)cc(Cl)c2)c2ccc3cccnc3c2O)n1 (stereo not shown) [AD4-12913]	61	41	–	–	–	–	–	–
Cc1ccnc(NC(c2cc(Cl)cc(Cl)c2)c2ccc3cccnc3c2O)c1 (stereo not shown) [AD4-12915]	71	25	–	–	–	–	–	–
Cc1cccc(NC(c2ccc(Cl)c(Cl)c2)c2ccc3cccnc3c2O)n1 (stereo not shown) [AD4-12916]	80	26	–	–	–	–	–	–
Cc1ccnc(NC(c2ccc(Cl)c(Cl)c2)c2ccc3cccnc3c2O)c1 (stereo not shown) [AD4-12917]	53	11	–	–	–	–	–	–
Cc1cccc(NC(c2ccc3cccnc3c2O)c2c(F)c(F)cc(F)c2F)n1 (stereo not shown) [AD4-12918]	51	15	–	–	–	–	–	–
Cc1cccc(NC(c2cc(Cl)ccc2Cl)c2ccc3cccnc3c2O)n1 (stereo not shown) [AD4-12955]	61	41	–	–	–	–	–	–
Cc1cccc(NC(c2ccc3cccnc3c2O)c2c(F)cccc2Cl)n1 (stereo not shown) [AD4-12959]	42	15	–	–	–	–	–	–
Cc1cccc(NC(c2ccc(C)c(F)c2F)c2ccc3ccc(C)nc3c2O)n1 (stereo not shown) [AD4-13022]	36	5	–	–	–	–	–	–
Cc1cccc(NC(c2cc(Cl)cc(Cl)c2Cl)c2ccc3cccnc3c2O)n1 (stereo not shown) [AD4-13023]	95	60	–	–	–	–	–	–
Cc1cccc(NC(c2ccc(F)cc2Cl)c2ccc3cccnc3c2O)n1 (stereo not shown) [AD4-13024]	47	20	–	–	–	–	–	–
Oc1c(C(Nc2ccc(C(F)(F)F)cn2)c2ccc(F)cc2F)ccc2cccnc12 (stereo not shown) [AD4-13029]	76	77	–	–	–	–	–	–
Cc1cc(Cl)cnc1NC(c1ccc(C(F)(F)F)c(F)c1)c1ccc2cccnc2c1O (stereo not shown) [AD4-13043]	98	77	–	–	–	–	–	–
Oc1c(C(Nc2cc(Cl)ccn2)c2ccc(F)cc2F)ccc2cccnc12 (stereo not shown) [AD4-13045]	77	26	–	–	–	–	–	–
Oc1c(C(Nc2ccc(C(F)(F)F)nc2)c2ccc(C(F)(F)F)c(F)c2)ccc2cccnc12 (stereo not shown) [AD4-13051]	72	40	–	–	–	–	–	–
Oc1c(C(Nc2ccc(Cl)cn2)c2ccc(C(F)(F)F)cc2)ccc2cccnc12 (stereo not shown) [AD4-13053]	97	46	–	–	–	–	–	–

Compound	HLM % Remaining@ 30 Min [1] [%]	MLM % Remaining@ 30 Min [2] [%]	IC50 (MDBK line; [4]) [µM]	ICW Screen (EGFR)	MTT-72 h A431/MDBK (ratio) ([3]; 72 h, value in brackets)	ICW Re-Test (EGFR)	IC50 [3, 5] [µM]	other results
Oc1c(C(Nc2ccc(Cl)cn2)c2ccc(Cl)c(Cl)c2)ccc2cccnc12 (stereo not shown) [AD4-13054]	80	46	–	–	–	–	–	–
Oc1c(C(Nc2ccc(Cl)cn2)c2ccc(C(F)(F)F)c(F)c2)ccc2cccnc12 (stereo not shown) [AD4-13055]	100	57	–	–	–	–	–	–
Oc1c(C(Nc2ccc(C(F)(F)F)cn2)c2cc(C(F)(F)F)ccc2Cl)ccc2cccnc12 (stereo not shown) [AD4-13056]	88	85	–	–	–	–	–	–
Cc1cc(Cl)cnc1NC(c1cc(C(F)(F)F)ccc1Cl)c1ccc2cccnc2c1O (stereo not shown) [AD4-13058]	75	60	–	–	–	–	–	–
Cc1cc(Cl)cnc1NC(c1ccc2cccnc2c1O)c1c(F)c(F)cc(F)c1F (stereo not shown) [AD4-13059]	92	64	–	–	–	–	–	–
Oc1c(C(Nc2ccc(F)cn2)c2ccc(C(F)(F)F)c(F)c2)ccc2cccnc12 (stereo not shown) [AD4-13061]	93	58	–	–	–	–	–	–
Oc1c(C(Nc2ccc(C(F)(F)F)nc2)c2ccc(C(F)(F)F)cc2)ccc2cccnc12 (stereo not shown) [AD4-13063]	80	42	–	–	–	–	–	–
CCOc1ccc(NC(c2ccccn2)c2ccc3cccnc3c2O)cc1 (stereo not shown) [compound 11000]	–	–	11.2	27.62	0.99	–	–	IC50 ([3]; 72 h, first value of A431/MDBK pair, read-out: MTT-72 h A431): 11.4 µM
COc1ccc(C)cc1NC(c1ccc(F)cc1)c1ccc2cccnc2c1O (stereo not shown) [compound 11014]	–	–	4.32	47.81	0.92	32.53	4.68	–
COC(=O)c1ccc(NC(c2cccs2)c2ccc3cccnc3c2O)cc1 (stereo not shown) [compound 11015]	–	–	3.87	64.21	0.76	57.97	5.07	–
CC(=O)Nc1ccc(NC(c2ccccn2)c2ccc3cccnc3c2O)cc1 (stereo not shown) [compound 11017]	–	–	9.66	25.07	0.83	–	11.6	–
Oc1c(C(Nc2ccccc2)c2ccccn2)ccc2cccnc12 (stereo not shown) [compound 11018]	–	–	8.1	25.31	0.89	21.62	9.11	–
Oc1c(C(Nc2cccc(Cl)c2)c2ccncc2)ccc2cccnc12 (stereo not shown) [compound 11042]	–	–	3.72	53.72	1.06	71.32	3.93	–
O=[N+]([O-])c1cccc(NC(c2ccco2)c2ccc3cccnc3c2O)c1 (stereo not shown) [compound 11056]	–	–	5.94	32.48	0.94	18.32	6.35	–
Oc1c(C(Nc2cccc(Cl)c2)c2cccnc2)ccc2cccnc12 (stereo not shown) [compound 11057]	–	–	7.86	44.4	0.98	73.29	7.99	–
Oc1c(C(Nc2ccc(OC(F)F)cc2)c2ccccn2)ccc2cccnc12 (stereo not shown) [compound 11072]	–	–	21.1	44.06	0.49	36.82	43.2	MTT-72 h % Max ([3]; 72 h, maximal effect printed after the ratio): 12%
COc1ccccc1NC(c1cccnc1)c1ccc2cccnc2c1O (stereo not shown) [compound 11102]	–	–	7.66	44.31	1.04	39.06	7.39	–
COc1ccc(NC(c2ccccn2)c2ccc3cccnc3c2O)cc1 (stereo not shown) [compound 11103]	–	–	36.4	50.55	1.75	45.86	20.8	–
Oc1c(C(Nc2cccc(F)c2)c2ccccn2)ccc2cccnc12 (stereo not shown) [compound 11105]	–	–	7.03	48.25	1.29	17.88	5.46	IC50 (MDBK line; 10 point follow-up, second value of pair, read-out: MTT (10 Point follow-up) MDBK): 6.5 µM; MTT (10 Point follow-up) ratio ([3]; 10 point follow-up, value in brackets, numerically MDBK over A431): 1.38; IC50 ([3]; Homo sapiens, A-431, 10 point follow-up, first value of pair, read-out: MTT (10 Point follow-up) A431): 4.72 µM
Oc1ccccc1NC(c1cccnc1)c1ccc2cccnc2c1O (stereo not shown) [compound 11151]	–	–	6.23	35.56	0.76	45.66	8.25	–
COc1ccc(NC(c2cccnc2)c2ccc3cccnc3c2O)cc1 (stereo not shown) [compound 11152]	–	–	8.24	60.41	0.92	48.96	9	–
Oc1c(C(Nc2ccc(F)cc2)c2ccncc2)ccc2cccnc12 (stereo not shown) [compound 11153]	–	–	5.58	28.24	0.43	20.64	13.1	–
Fc1cccc(C(Nc2ccccn2)c2ccc3cccnc3c2)c1 (stereo not shown) [compound 11191]	–	–	5.53	40.32	0.99	22.02	5.59	–
